Data: paper PMC8037033, “Synthesis and Rational Design of New Appended 1,2,3-Triazole-uracil Ensembles as Promising Anti-Tumor Agents via In Silico VEGFR-2 Transferase Inhibition” (Molecules, 2021)

What was measured:
[1] = test system: HeLa tumor cells; assay: MTT cytotoxicity assay, HeLa; type: cell-based, human; settings: 72 h
Description: (§1) The cell viability was measured by MTT colourimetric assay. The cell lines viz., HeLa (human cervical adenocarcinoma), HUH-7 (human hepatoma cancer cells) and NIH/3T3 (normal murine fibroblast cells) were supplemented with 10% fetal bovine serum and maintained in an environment of 5% CO2 at 37 °C temperature. Cell lines at a density of 2 × 10^3 cells/well were seeded onto 96 well plates for 16 h and maintained in DMEM culture media. Five different concentrations of synthesized ligands and 5-fluorouracil (except for normal cells) i.e., 0.1, 0.5, 1, 5 and 10 μM were treated against each cell line and incubated for 3 days at 37 °C [56]. Then, the solutions were discarded and an MTT reagent with a final concentration of 500 μg/mL was added to each well and plate and incubated for another 4–6 h. 200 μL of DMSO was added to solubilize purple precipitates (formazan product) and absorbance (optical density) was recorded at 570 nm on ELISA reader. IC50 values were calculated using dose-response data by applying the linear regression method. The experiments were done in triplicate for each concentration of ligand.

[2] = test system: HUH-7 tumor cells; assay: MTT cytotoxicity assay, HUH-7; type: cell-based; settings: Homo sapiens, 72 h
Description: as §1

[3] = test system: NIH/3T3 normal cells; assay: MTT cytotoxicity assay, NIH/3T3 normal cells; type: cell-based, murine; settings: Mus musculus, NIH3T3, 72 h
Description: as §1

In the case of `O=c1[nH]cc(F)c(=O)[nH]1` [Compound 5-FU, 5-fluorouracil, reference compound], the IC50 ([1]; Homo sapiens, HeLa) is reported as 4.6 ± 0.2 µM and the IC50 [2] is reported as 30 ± 2.5 µM.

`Cn1c(=O)cc(Cl)n(Cc2cn(-c3ccccc3)nn2)c1=O` [Compound 5a, 6-Chloro-3-methyl-1-((1-phenyl-1H-1,2,3-triazol-4-yl)methyl)pyrimidine-2,4(1H,3H)-dione] gave an IC50 ([1]; Homo sapiens, HeLa) of 11.2 ± 0.1 µM, an IC50 [2] greater than 10 µM and a melting point of 120 to 121 °C. For the same compound, the IC50 [3] was greater than 10 µM.

Compound `Cn1c(=O)cc(Cl)n(Cc2cn(-c3ccc(F)cc3)nn2)c1=O` [Compound 5b, 6-Chloro-1-((1-(4-fluorophenyl)-1H-1,2,3-triazol-4-yl)methyl)-3-methylpyrimidine-2,4(1H,3H)-dione] has an IC50 ([1]; Homo sapiens, HeLa) greater than 10 µM, an IC50 [2] greater than 10 µM and a melting point of 97 °C. For the same compound, the IC50 [3] was greater than 10 µM.

Compound `Cn1c(=O)cc(Cl)n(Cc2cn(-c3ccc(Cl)cc3)nn2)c1=O` [Compound 5c, 6-Chloro-1-((1-(4-chlorophenyl)-1H-1,2,3-triazol-4-yl)methyl)-3-methylpyrimidine-2,4(1H,3H)-dione] has an IC50 ([1]; Homo sapiens, HeLa) greater than 10 µM, an IC50 [2] greater than 10 µM and a melting point of 100 °C. The IC50 [3] was greater than 10 µM.

`Cn1c(=O)cc(Cl)n(Cc2cn(-c3ccc([N+](=O)[O-])cc3)nn2)c1=O` [Compound 5d, 6-Chloro-3-methyl-1-((1-(4-nitrophenyl)-1H-1,2,3-triazol-4-yl)methyl)pyrimidine-2,4(1H,3H)-dione] showed an IC50 ([1]; Homo sapiens, HeLa) greater than 10 µM, an IC50 [2] greater than 10 µM and a melting point of 110 to 112 °C. For the same compound, the IC50 [3] was greater than 10 µM.

With `COc1ccc(-n2cc(Cn3c(Cl)cc(=O)n(C)c3=O)nn2)cc1` [Compound 5e, 6-Chloro-1-((1-(4-methoxyphenyl)-1H-1,2,3-triazol-4-yl)methyl)-3-methylpyrimidine-2,4-(1H,3H)-dione] the IC50 ([1]; Homo sapiens, HeLa) was greater than 10 µM, the IC50 [2] was greater than 10 µM and the melting point was 145 to 148 °C. The IC50 [3] was greater than 10 µM.

Work on `Cn1c(=O)cc(Cl)n(Cc2cn(Cc3ccccc3)nn2)c1=O` [Compound 5f, 1-((1-Benzyl-1H-1,2,3-triazol-4-yl)methyl)-6-chloro-3-methylpyrimidine-2,4(1H,3H)-dione] yielded an IC50 ([1]; Homo sapiens, HeLa) greater than 10 µM, an IC50 [2] of 10.8 ± 0.5 µM and a melting point of 115 to 118 °C. The IC50 [3] was greater than 10 µM.

`Cn1c(=O)cc(Cl)n(Cc2cn(Cc3ccc(Br)cc3)nn2)c1=O` [Compound 5g, 1-((1-(4-Bromobenzyl)-1H-1,2,3-triazol-4-yl)methyl)-6-chloro-3-methylpyrimidine-2,4(1H,3H)-dione] gave an IC50 ([1]; Homo sapiens, HeLa) greater than 10 µM, an IC50 [2] greater than 10 µM and a melting point of 138 to 140 °C. For the same compound, the IC50 [3] was greater than 10 µM.

For `Cc1ccc(Cn2cc(Cn3c(Cl)cc(=O)n(C)c3=O)nn2)cc1` [Compound 5h, 6-Chloro-3-methyl-1-((1-(4-methylbenzyl)-1H-1,2,3-triazol-4-yl)methyl)pyrimidine-2,4(1H,3H)-dione], the IC50 ([1]; Homo sapiens, HeLa) was 4.5 ± 0.5 µM, the IC50 [2] was 7.7 ± 0.3 µM and the IC50 [3] was greater than 10 µM.

With `COc1cccc(Cn2cc(Cn3c(Cl)cc(=O)n(C)c3=O)nn2)c1` [Compound 5i, 6-Chloro-1-((1-(3-methoxybenzyl)-1H-1,2,3-triazol-4-yl)methyl)-3-methylpyrimidine-2,4(1H,3H)-dione] the IC50 [1] was greater than 10 µM, the IC50 ([1]; Homo sapiens, HeLa) was 9 µM and the IC50 [2] was 9 ± 0.8 µM. The melting point was 98 to 100 °C and the IC50 [3] was greater than 10 µM.

Work on `Cn1c(=O)cc(Cl)n(Cc2cn(Cc3cccc(Oc4ccccc4)c3)nn2)c1=O` [Compound 5j, 6-Chloro-3-methyl-1-((1-(3-phenoxybenzyl)-1H-1,2,3-triazol-4-yl)methyl)pyrimidine-2,4(1H,3H)-dione] yielded an IC50 ([1]; Homo sapiens, HeLa) of 10 ± 1.5 µM, an IC50 [2] greater than 10 µM and a melting point of 101 to 105 °C. It also gave an IC50 [3] greater than 10 µM.

Work on `Cn1c(=O)cc(Cl)n(Cc2cn(Cc3nc(C4=Cc5ccccc5OC4)no3)nn2)c1=O` [Compound 5k, 1-((1-((3-(2H-Chromen-3-yl)-1,2,4-oxadiazol-5-yl)methyl)-1H-1,2,3-triazol-4-yl)methyl)-6-chloro-3-methylpyrimidine-2,4(1H,3H)-dione] yielded an IC50 ([1]; Homo sapiens, HeLa) greater than 10 µM, an IC50 [2] greater than 10 µM and a melting point of 125 to 128 °C. For the same compound, the IC50 [3] was greater than 10 µM.

`COc1cccc2c1OCC(c1noc(Cn3cc(Cn4c(Cl)cc(=O)n(C)c4=O)nn3)n1)=C2` [Compound 5l, 6-Chloro-1-((1-((3-(8-methoxy-2H-chromen-3-yl)-1,2,4-oxadiazol-5-yl)methyl)-1H-1,2,3-triazol-4-yl)methyl)-3-methylpyrimidine-2,4(1H,3H)-dione] showed an IC50 ([1]; Homo sapiens, HeLa) greater than 10 µM, an IC50 [2] greater than 10 µM and a melting point of 122 to 125 °C. For the same compound, the IC50 [3] was greater than 10 µM.

Compound `Cc1cc(=O)oc2cc(OCCCCn3cc(Cn4c(Cl)cc(=O)n(C)c4=O)nn3)ccc12` [Compound 5m, 6-Chloro-3-methyl-1-((1-(4-((4-methyl-2-oxo-2H-chromen-7-yl)oxy)butyl)-1H-1,2,3-triazol-4-yl)methyl)pyrimidine-2,4(1H,3H)-dione] has an IC50 ([1]; Homo sapiens, HeLa) greater than 10 µM, an IC50 [2] greater than 10 µM and a melting point of 145 to 148 °C. For the same compound, the IC50 [3] was greater than 10 µM.

With `Cn1c(=O)cc(Cl)n(Cc2cn(CCCN3C(=O)c4cccc5cccc(c45)C3=O)nn2)c1=O` [Compound 5n, 2-(3-(4-((6-Chloro-3-methyl-2,4-dioxo-3,4-dihydropyrimidin-1(2H)-yl)methyl)-1H-1,2,3-triazol-1-yl)propyl)-1H-benzo[de]isoquinoline-1,3(2H)-dione] the IC50 ([1]; Homo sapiens, HeLa) was 9.6 ± 1.2 µM, the IC50 [2] was greater than 10 µM and the melting point was 96 to 98 °C. It also gave an IC50 [3] greater than 10 µM.

`CCCCCCn1cc(Cn2c(Cl)cc(=O)n(C)c2=O)nn1` [Compound 5o, 6-Chloro-1-((1-hexyl-1H-1,2,3-triazol-4-yl)methyl)-3-methylpyrimidine-2,4(1H,3H)-dione] gave an IC50 ([1]; Homo sapiens, HeLa) greater than 10 µM, an IC50 [2] greater than 10 µM and a melting point of 100 to 102 °C. For the same compound, the IC50 [3] was greater than 10 µM.

`CCCCCCCCn1cc(Cn2c(Cl)cc(=O)n(C)c2=O)nn1` [Compound 5p, 6-Chloro-3-methyl-1-((1-octyl-1H-1,2,3-triazol-4-yl)methyl)pyrimidine-2,4(1H,3H)-dione] showed an IC50 ([1]; Homo sapiens, HeLa) greater than 10 µM, an IC50 [2] greater than 10 µM and an IC50 [3] greater than 10 µM.

Compound `Cn1c(=O)cc(Cl)n(Cc2cn(CCCCn3cc(Cn4c(Cl)cc(=O)n(C)c4=O)nn3)nn2)c1=O` [Compound 5q, 1,1’-((Butane-1,4-diylbis(1H-1,2,3-triazole-1,4-diyl))bis(methylene))bis(6-chloro-3-methylpyrimidine-2,4(1H,3H)-dione)] has an IC50 ([1]; Homo sapiens, HeLa) greater than 10 µM, an IC50 [2] greater than 10 µM and a melting point of 115 to 118 °C. For the same compound, the IC50 [3] was greater than 10 µM.

With `Cn1c(=O)cc(Cl)n(Cc2cn(CCCCCn3cc(Cn4c(Cl)cc(=O)n(C)c4=O)nn3)nn2)c1=O` [Compound 5r, 1,1’-((Pentane-1,5-diylbis(1H-1,2,3-triazole-1,4-diyl))bis(methylene))bis(6-chloro-3-methylpyrimidine-2,4(1H,3H)-dione)] the IC50 ([1]; Homo sapiens, HeLa) was 9.6 ± 0.9 µM, the IC50 [2] was greater than 10 µM and the melting point was 114 to 115 °C. For the same compound, the IC50 [3] was greater than 10 µM.
